Reference: patent publication US20080279957A1, “Immunomodulating compositions from bile” (Lorus Therapeutics Inc., priority 2000, published 2008)

System: human PBMN
Test: LPS-stimulated release of cytokines other than TNF by PBMN, LPS plus composition
Format: cell-based
Details: LPS (50 ng/ml) alone
Method: In the studies of TNF, whole blood was drawn from 5 healthy subjects into heparinized Vacutainer tubes. Peripheral blood mononuclear cells (PBMNs) were isolated by gradient centrifugation on Ficoll-Hypaque (Pharmacia). The PBMN were washed twice with phosphate buffered saline (PBS), counted and resuspended in RPMI 1640 culture medium (Gibco Labs) at a concentration of 10^6 cells/0.5 ml. These cells were cultured in 24 well, flat-bottomed tissue culture plates (Falcon, Becton, Dickinson). […] The total volume was then made up to 1 ml/well with RPMI. As control, PBS was used instead of composition. The cells were cultured for 2, 6, 24, 48 and 72 hours at 37° C. in a humidified 5% CO2 incubator. At the end of each incubation period, the cells were harvested and cell free culture fluids were obtained by centrifugation at 9000 rpm for 10 minutes. The samples were then stored at −70° C. until ELISA for cytokines was carried out (within 2 weeks).
Experiments were performed to determine whether the composition of the invention would impair LPS-stimulated release. […] The effects on the other cytokines IL-6, IL-8, IFN-gamma and GM-CSF were not as marked. However, in no instance did the compositions tested augment the effect of LPS stimulated release of cytokines.

Lipopolysaccharide [LPS] gave a GM-CSF released of 54 ± 65, an IFN-γ released of 30 ± 24 and an IL-6 released of 2320 ± 1081. For the same substance, the IL-8 released was 118 ± 62 ng/mL, the IL-16 released was 1314 ± 723 and the IL-1α released (six patients) was 129 ± 135.
